Experimental data published in ChEMBL document CHEMBL5634112, “Synthesis and biological evaluation of fluoroquinolones containing a pyridoxine derivatives moiety” (Eur J Med Chem, 2023).

Key:
[1] = tested on: Staphylococcus epidermidis; assay: Antibacterial activity against clinical isolate Staphylococcus epidermidis assessed as reduction in microbial growth incubated for 24 hrs by broth microdilution method; type: functional
Micrococcus luteus = assay: Antibacterial activity against clinical isolate Micrococcus luteus assessed as reduction in microbial growth incubated for 24 hrs by broth microdilution method; type: functional
Staphylococcus aureus [2] = assay: Antibacterial activity against methicillin sensitive Staphylococcus aureus ATCC 29213 assessed as reduction in microbial growth incubated for 24 hrs by broth microdilution method; type: functional
Escherichia coli [3] = assay: Antibacterial activity against Escherichia coli ATCC 25922 assessed as reduction in microbial growth incubated for 24 hrs by broth microdilution method; type: functional
Salmonella typhimurium = assay: Antibacterial activity against Salmonella typhimurium TA100 assessed as reduction in microbial growth incubated for 24 hrs by broth microdilution method; type: functional, Salmonella enterica subsp. enterica serovar Typhimurium; conditions: Salmonella enterica
Pseudomonas aeruginosa [4] = assay: Antibacterial activity against Pseudomonas aeruginosa ATCC 27853 assessed as reduction in microbial growth incubated for 24 hrs by broth microdilution method; type: functional
Bacillus subtilis = assay: Antibacterial activity against Bacillus subtilis 168 assessed as reduction in microbial growth incubated for 24 hrs by broth microdilution method; type: functional
[5] = Cytotoxicity against human CHL assessed as reduction in cell viability incubated for 72 hrs by MTT assay; type: toxicity, cell-based; conditions: CHL cells
Staphylococcus aureus [6] = assay: Antibacterial activity against clinical isolate methicillin resistant Staphylococcus aureus 4771 assessed as reduction in microbial growth incubated for 24 hrs by broth microdilution method; type: functional
Staphylococcus aureus [7] = assay: Antibacterial activity against clinical isolate Staphylococcus aureus 1812 assessed as reduction in microbial growth incubated for 24 hrs by broth microdilution method; type: functional
Klebsiella pneumoniae = assay: Antibacterial activity against clinical isolate Klebsiella pneumoniae 1678 assessed as reduction in microbial growth incubated for 24 hrs by broth microdilution method; type: functional
[8] = Cytotoxicity against human HSF assessed as reduction in cell viability incubated for 72 hrs by MTT assay; type: toxicity, cell-based; conditions: HSF cells
Klebsiella aerogenes = assay: Antibacterial activity against clinical isolate Enterobacter aerogenes NKC 8 assessed as reduction in microbial growth incubated for 24 hrs by broth microdilution method; type: functional
[9] = Cytotoxicity against human MSC assessed as reduction in cell viability incubated for 72 hrs by MTT assay; type: toxicity, cell-based; conditions: MSC cells
Pseudomonas aeruginosa [10] = assay: Antibacterial activity against clinical isolate Pseudomonas aeruginosa NKC 17 assessed as reduction in microbial growth incubated for 24 hrs by broth microdilution method; type: functional
Cedecea davisae = assay: Antibacterial activity against clinical isolate Cedecea davisae 1813 assessed as reduction in microbial growth incubated for 24 hrs by broth microdilution method; type: functional
[11] = tested on: Staphylococcus auricularis; assay: Antibacterial activity against clinical isolate Staphylococcus auricularis NKC 7 assessed as reduction in microbial growth incubated for 24 hrs by broth microdilution method; type: functional
Staphylococcus aureus [12] = assay: Antibacterial activity against clinical isolate Staphylococcus aureus 4721 assessed as reduction in microbial growth incubated for 24 hrs by broth microdilution method; type: functional
[13] = tested on: Staphylococcus haemolyticus; assay: Antibacterial activity against clinical isolate Staphylococcus haemolyticus NKC 31/2 assessed as reduction in microbial growth incubated for 24 hrs by broth microdilution method; type: functional
[14] = tested on: Staphylococcus haemolyticus; assay: Antibacterial activity against clinical isolate Staphylococcus haemolyticus 1464 assessed as reduction in microbial growth incubated for 24 hrs by broth microdilution method; type: functional
[15] = tested on: Staphylococcus epidermidis; assay: Antibacterial activity against clinical isolate Staphylococcus epidermidis NKC 37/1 assessed as reduction in microbial growth incubated for 24 hrs by broth microdilution method; type: functional
Escherichia coli [16] = assay: Antibacterial activity against clinical isolate Escherichia coli NKC 1 assessed as reduction in microbial growth incubated for 24 hrs by broth microdilution method; type: functional
Enterococcus faecalis = assay: Antibacterial activity against clinical isolate Enterococcus faecalis 1465 assessed as reduction in microbial growth incubated for 24 hrs by broth microdilution method; type: functional

Row | SMILES | MIC [1] [µg/mL] | MIC (Micrococcus luteus) [µg/mL] | MIC (Staphylococcus aureus [2]) [µg/mL] | MIC (Escherichia coli [3]) [µg/mL] | MIC (Salmonella typhimurium) [µg/mL] | MIC (Pseudomonas aeruginosa [4]) [µg/mL] | MIC (Bacillus subtilis) [µg/mL] | also measured
1 | CCCC1OCc2c(CN3CCN(c4cc5c(cc4F)c(=O)c(C(=O)O)cn5CC)CC3)cnc(C)c2O1 (centres undefined) | 32 | 64 | 16 | > 64 | 2 | > 64 | 2 | –
2 | CCn1cc(C(=O)O)c(=O)c2cc(F)c(N3CCN(Cc4cnc(C)c5c4COCO5)CC3)cc21.Cl | 2 | 4 | 2 | 4 | 2 | > 64 | 2 | CC50 at 72 h [5]: 9.78 µg/mL; MIC (Staphylococcus aureus [6]): 1 µg/mL; MIC (Staphylococcus aureus [7]): 2 µg/mL; MIC (Klebsiella pneumoniae): 4 µg/mL; CC50 at 72 h [8]: 23.4 µg/mL; MIC (Klebsiella aerogenes): 1 µg/mL; CC50 at 72 h [9]: 21.2 µg/mL; MIC (Pseudomonas aeruginosa [10]): 2 µg/mL; MIC (Cedecea davisae): 0.25 µg/mL; MIC [11]: 0.03 µg/mL; MIC (Staphylococcus aureus [12]): 1 µg/mL; MIC [13]: 8 µg/mL; MIC [14]: 1 µg/mL; MIC [15]: 2 µg/mL; MIC (Escherichia coli [16]): 0.13 µg/mL; MIC (Enterococcus faecalis): 32 µg/mL
3 | CCCCCCCCC1OCc2c(CN3CCC[C@H]4CN(c5c(F)cc6c(=O)c(C(=O)O)cn(C7CC7)c6c5OC)C[C@H]43)cnc(C)c2O1 (some centres undefined) | 32 | 16 | 16 | > 64 | 16 | > 64 | 8 | –
4 | COc1c(N2C[C@@H]3CCCN(Cc4cnc(C)c(O)c4CO)[C@@H]3C2)c(F)cc2c(=O)c(C(=O)O)cn(C3CC3)c12.Cl | 2 | 4 | 2 | > 64 | 4 | > 64 | 2 | CC50 at 72 h [5]: 18.6 µg/mL; MIC (Staphylococcus aureus [6]): 0.13 µg/mL; MIC (Staphylococcus aureus [7]): 0.25 µg/mL; MIC (Klebsiella pneumoniae): > 64 µg/mL; CC50 at 72 h [8]: 56.7 µg/mL; MIC (Klebsiella aerogenes): 8 µg/mL; CC50 at 72 h [9]: 48.4 µg/mL; MIC (Pseudomonas aeruginosa [10]): 64 µg/mL; MIC (Cedecea davisae): 0.13 µg/mL; MIC [11]: 0.03 µg/mL; MIC (Staphylococcus aureus [12]): 0.13 µg/mL; MIC [13]: 8 µg/mL; MIC [14]: 0.13 µg/mL; MIC [15]: 0.06 µg/mL; MIC (Escherichia coli [16]): 4 µg/mL; MIC (Enterococcus faecalis): 1 µg/mL
5 | CCn1cc(C(=O)O)c(=O)c2cc(F)c(N3CCN(Cc4cnc(C)c(O)c4C)CC3)cc21.Cl | 16 | 8 | 4 | 2 | 64 | > 64 | 2 | –
6 | Cc1nc(CN2CCN(c3cc4c(cc3F)c(=O)c(C(=O)O)cn4C3CC3)CC2)c(CO)c(CO)c1O.Cl | 32 | 32 | 64 | 64 | 4 | > 64 | 2 | –
7 | CCCC1OCc2c(CN3CCN(c4cc5c(cc4F)c(=O)c(C(=O)O)cn5C4CC4)CC3)cnc(C)c2O1 (centres undefined) | 64 | 64 | 64 | > 64 | 4 | > 64 | 2 | –
8 | CCn1cc(C(=O)O)c(=O)c2cc(F)c(N3CCN(Cc4cnc(C)c5c4COCO5)C(C)C3)c(F)c21.Cl (centres undefined) | 16 | 32 | 8 | 16 | 4 | > 64 | 4 | –
9 | CCn1cc(C(=O)O)c(=O)c2cc(F)c(N3CCN(Cc4cnc(C)c(O)c4C)C(C)C3)c(F)c21.Cl (centres undefined) | > 64 | 32 | 2 | 2 | 2 | > 64 | 1 | –
10 | Cc1ncc(CN2CCN(c3cc4c(cc3F)c(=O)c(C(=O)O)cn4C3CC3)CC2)c2c1OC(C)(C)OC2.Cl | 16 | 32 | 32 | 64 | 4 | > 64 | 2 | –
11 | CCn1cc(C(=O)O)c(=O)c2cc(F)c(N3CCN(Cc4c(CO)nc(C)c(O)c4CO)CC3)cc21.Cl | 16 | 16 | 8 | 8 | 4 | > 64 | 8 | –
12 | CCn1cc(C(=O)O)c(=O)c2cc(F)c(N3CCN(Cc4nc(C)c(O)c(CO)c4CO)C(C)C3)c(F)c21.Cl (centres undefined) | 64 | 64 | 2 | 2 | 2 | > 64 | 2 | –
13 | Cc1nc(CN2CCN(c3cc4c(cc3F)c(=O)c(C(=O)O)cn4C3CC3)CC2)c(CO)c2c1OC(C)(C)OC2 | 8 | 8 | 8 | 64 | 4 | > 64 | 2 | –
14 | CCn1cc(C(=O)O)c(=O)c2cc(F)c(N3CCN(Cc4nc(C)c(O)c(CO)c4CO)CC3)cc21.Cl | 32 | 8 | 8 | > 64 | 16 | > 64 | 4 | –
15 | CCn1cc(C(=O)O)c(=O)c2cc(F)c(N3CCN(Cc4cnc(C)c5c4COC(C)O5)CC3)cc21 (centres undefined) | 32 | 64 | 32 | > 64 | 16 | > 64 | 8 | –
16 | CCn1cc(C(=O)O)c(=O)c2cc(F)c(N3CCN(Cc4cnc(C)c5c4COC(C)(C)O5)CC3)cc21 | > 64 | > 64 | > 64 | 64 | > 64 | > 64 | 64 | –
17 | CCn1cc(C(=O)O)c(=O)c2cc(F)c(N3CCN(Cc4cnc(C)c5c4COC(C)(C)O5)C(C)C3)c(F)c21.Cl (centres undefined) | 64 | 8 | 16 | > 64 | 2 | > 64 | 2 | –
18 | CCCC1OCc2c(CN3CCN(c4c(F)cc5c(=O)c(C(=O)O)cn(CC)c5c4F)CC3C)cnc(C)c2O1 (centres undefined) | 8 | 16 | 16 | > 64 | 2 | > 64 | 2 | –
19 | CCn1cc(C(=O)O)c(=O)c2cc(F)c(N3CCN(Cc4nc(C)c5c(c4CO)COC(C)(C)O5)C(C)C3)c(F)c21 (centres undefined) | 16 | > 64 | 64 | 8 | 2 | > 64 | 4 | –
20 | Cc1ncc(CN2CCN(c3cc4c(cc3F)c(=O)c(C(=O)O)cn4C3CC3)CC2)c2c1OC(C)OC2.Cl (centres undefined) | 8 | 8 | 8 | > 64 | 4 | > 64 | 2 | –
21 | CCCCCCCCC1OCc2c(CN3CCN(c4c(F)cc5c(=O)c(C(=O)O)cn(CC)c5c4F)CC3C)cnc(C)c2O1 (centres undefined) | > 64 | > 64 | > 64 | > 64 | > 64 | > 64 | > 64 | –
22 | COc1c(N2C[C@@H]3CCCN(Cc4cnc(C)c5c4COC(C)O5)[C@@H]3C2)c(F)cc2c(=O)c(C(=O)O)cn(C3CC3)c12 (some centres undefined) | 4 | 4 | 1 | 16 | 4 | > 64 | 1 | –
23 | CCCCCCCCC1OCc2c(CN3CCN(c4cc5c(cc4F)c(=O)c(C(=O)O)cn5CC)CC3)cnc(C)c2O1 (centres undefined) | > 64 | > 64 | > 64 | > 64 | > 64 | > 64 | 64 | –
24 | CCn1cc(C(=O)O)c(=O)c2cc(F)c(N3CCN(Cc4cnc(C)c5c4COC(C)O5)C(C)C3)c(F)c21 (centres undefined) | 8 | > 64 | 2 | > 64 | 2 | 16 | 2 | –
25 | CCn1cc(C(=O)O)c(=O)c2cc(F)c(N3CCN(Cc4cnc(C)c(O)c4CO)CC3)cc21.Cl | 32 | 32 | 16 | 64 | 4 | > 64 | 4 | –
26 | CCCCCCCCC1OCc2c(CN3CCN(c4cc5c(cc4F)c(=O)c(C(=O)O)cn5C4CC4)CC3)cnc(C)c2O1 (centres undefined) | 64 | 64 | 32 | > 64 | 4 | > 64 | 2 | –
